These results are taken from patent US9416141B2 (University of Washington through its Center for …, priority 2012, dated 2016).

Structures can show the parent of a compound that is named as a salt.

The assay relates to hair cells. Kind of assay: Hair cell toxicity assay in zebrafish (neomycin-induced hair cell death, DASPEI staining of neuromasts). The assay is classed as in vivo. The following applies: Danio rerio; for Emax at 25 µM: maximum observed @ 25 μM test compound; for EC50: zebrafish larvae 5-7 dpf, 1 h pre-treatment, then 200 micromolar neomycin + test compound 30 min, read-out: HC50 (concentration that would produce 50% hair cell survival); for Emax at 2.8 µM: maximum observed @ 2.8 μM test compound; for Emax at 8.3 µM: maximum observed @ 8.3 μM test compound. The method, boiled down: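 Hair cell survival, as % of untreated controls, came from DASPEI scoring (0-2 each, ten neuromasts on one side) in 5-7 dpf larvae. These had 1 h compound pre-exposure (0.010-25 μM), then 200 μM neomycin with compound for 30 min. HCmax is peak protection; HC50 interpolated between flanking concentrations only when ≥50% survive.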

Where [1] appears, read: 200 micromolar neomycin, read-out: Max HC Protection (HCmax, % hair cell survival).

`CC[N+]1(C)CCc2c(sc(NC(=O)Nc3ccc(Cl)cc3)c2C(N)=O)C1` (centres unmarked) [Example 136, 3-Carbamoyl-2-[3-(4-chlorophenyl)ureido]-6-ethyl-6-methyl-4,5,6,7-tetrahydrothieno[2,3-c]pyridin-6-ium iodide]: the EC50 lay within 1000 to 10000 nM. For the same compound, the Emax at 25 µM under setting [1] was 76%.
As for `NC(=O)c1c(NC(=O)Nc2ccc(Cl)cc2)sc2c1CC[N+]1(CCCC1)C2` [Example 138, 3′-Carbamoyl-2′-[3-(4-chlorophenyl)ureido]-5′,7′-dihydro-4′H-spiro[pyrrolidine-1,6′-thieno[2,3-c]pyridin]-1-ium bromide], the EC50 was below 1000 nM. The Emax at 25 µM under setting [1] turned out to be 94%.
As for `CC[N+]1(CC)CCc2c(sc(NC(=O)Nc3ccc(Cl)cc3)c2C(N)=O)C1` [Example 139, 3-Carbamoyl-2-[3-(4-chlorophenyl)ureido]-6,6-diethyl-4,5,6,7-tetrahydrothieno[2,3-c]pyridin-6-ium iodide], the EC50 is below 1000 nM. Also, under setting [1], the Emax at 25 µM was determined as 99%.
For `C[N+]1(CC2CC2)CCc2c(sc(NC(=O)Nc3ccc(Cl)cc3)c2C(N)=O)C1` (centres unmarked) [Example 140, 3-Carbamoyl-2-[3-(4-chlorophenyl)ureido]-6-(cyclopropylmethyl)-6-methyl-4,5,6,7-tetrahydrothieno[2,3-c]pyridin-6-ium iodide], in that order: below 1000 nM and 92%.
With `COCCC[N+]1(C)CCc2c(sc(NC(=O)Nc3ccc(Cl)cc3)c2C(N)=O)C1` (centres unmarked) [Example 141, 3-Carbamoyl-2-[3-(4-chlorophenyl)ureido]-6-(3-methoxypropyl)-6-methyl-4,5,6,7-tetrahydrothieno[2,3-c]pyridin-6-ium iodide], the EC50 was below 1000 nM. Besides, the Emax at 2.8 µM under setting [1] is 77%.
As for `C[N+]1(C2COC2)CCc2c(sc(NC(=O)Nc3ccc(Cl)cc3)c2C(N)=O)C1` (centres unmarked) [Example 142, 3-Carbamoyl-2-[3-(4-chlorophenyl)ureido]-6-methyl-6-(oxetan-3-yl)-4,5,6,7-tetrahydrothieno[2,3-c]pyridin-6-ium iodide], the EC50 fell in the range of 1000 to 10000 nM. Besides, the Emax at 25 µM under setting [1] came out at 82%.
For `C[N+]1(C2CCOCC2)CCc2c(sc(NC(=O)Nc3ccc(Cl)cc3)c2C(N)=O)C1` (centres unmarked) [Example 143, 3-Carbamoyl-2-[3-(4-chlorophenyl)ureido]-6-methyl-6-(tetrahydro-2H-pyran-4-yl)-4,5,6,7-tetrahydrothieno[2,3-c]pyridin-6-ium iodide], in that order: 1000 to 10000 nM and 96%.
For `C[N+]1(CCO)CCc2c(sc(NC(=O)Nc3ccc(Cl)cc3)c2C(N)=O)C1` (centres unmarked) [Example 144, 3-Carbamoyl-2-[3-(4-chlorophenyl)ureido]-6-(2-hydroxyethyl)-6-methyl-4,5,6,7-tetrahydrothieno[2,3-c]pyridin-6-ium iodide], in that order: 1000 to 10000 nM and 78%.
Consider `C[N+]1(CC2CCC2)CCc2c(sc(NC(=O)Nc3ccc(Cl)cc3)c2C(N)=O)C1` (centres unmarked) [Example 145, 3-Carbamoyl-2-[3-(4-chlorophenyl)ureido]-6-(cyclobutylmethyl)-6-methyl-4,5,6,7-tetrahydrothieno[2,3-c]pyridin-6-ium iodide], for which the EC50 was below 1000 nM. Under setting [1], the Emax at 8.3 µM came to 95%.
Regarding `NC(=O)c1c(NC(=O)Nc2ccc(Cl)cc2)sc2c1CC[N+]1(CCOCC1)C2` [Example 146, 3′-Carbamoyl-2′-[3-(4-chlorophenyl)ureido]-5′,7′-dihydro-4′H-spiro[morpholine-4,6′-thieno[2,3-c]pyridin]-4-ium iodide], the EC50 lay within 1000 to 10000 nM. In addition, under setting [1], the Emax at 25 µM stood at 96%.
`CC(C)(C)OC(=O)C[N+]1(C)CCc2c(sc(NC(=O)Nc3ccc(Cl)cc3)c2C(N)=O)C1` (centres unmarked) [Example 147, 6-(2-tert-Butoxy-2-oxoethyl)-3-carbamoyl-2-[3-(4-chlorophenyl)ureido]-6-methyl-4,5,6,7-tetrahydrothieno[2,3-c]pyridin-6-ium iodide]: the EC50 was below 1000 nM. The Emax at 2.8 µM under setting [1] was 90%.
As for `CC[N+]1(C)CCc2c(sc(NC(=O)NCc3ccc(Cl)cc3)c2C(N)=O)C1` (centres unmarked) [Example 148, 3-Carbamoyl-2-[3-(4-chlorobenzyl)ureido]-6-ethyl-6-methyl-4,5,6,7-tetrahydrothieno[2,3-c]pyridin-6-ium iodide], the EC50 was above 10000 nM. Also, the Emax at 25 µM under setting [1] is 51%.
On to `C[N+]1(CCCC(=O)O)CCc2c(sc(NC(=O)Nc3ccc(Cl)cc3)c2C(N)=O)C1` (centres unmarked) [Example 149, 3-Carbamoyl-6-(3-carboxypropyl)-2-[3-(4-chlorophenyl)ureido]-6-methyl-4,5,6,7-tetrahydrothieno[2,3-c]pyridin-6-ium trifluoroacetate], for which the Emax at 25 µM under setting [1] is 24%.
As for `CC[N+]1(C)CCc2c(sc(NC(=O)Nc3ccc(C#N)cc3)c2C(N)=O)C1` (centres unmarked) [Example 150, 3-Carbamoyl-2-[3-(4-cyanophenyl)ureido]-6-ethyl-6-methyl-4,5,6,7-tetrahydrothieno[2,3-c]pyridin-6-ium iodide], under setting [1], the Emax at 25 µM came out at 43%.
Regarding `CC(C)(C)OC(=O)CC[N+]1(C)CCc2c(sc(NC(=O)Nc3ccc(Cl)cc3)c2C(N)=O)C1` (centres unmarked) [Example 151, 6-(3-tert-Butoxy-3-oxopropyl)-3-carbamoyl-2-[3-(4-chlorophenyl)ureido]-6-methyl-4,5,6,7-tetrahydrothieno[2,3-c]pyridin-6-ium iodide], the EC50 is below 1000 nM. Further, the Emax at 2.8 µM under setting [1] is 105%.
As for `C[N+]1(CC2CCCCC2)CCc2c(sc(NC(=O)Nc3ccc(Cl)cc3)c2C(N)=O)C1` (centres unmarked) [Example 152, 3-Carbamoyl-2-[3-(4-chlorophenyl)ureido]-6-(cyclohexylmethyl)-6-methyl-4,5,6,7-tetrahydrothieno[2,3-c]pyridin-6-ium iodide], the EC50 was below 1000 nM. The Emax at 0.9 µM (maximum observed @ 0.9 μM test compound, 200 micromolar neomycin, read-out: Max HC Protection (HCmax, % hair cell survival)) came out at 78%.
As to `C[N+]1(CC2CCCC2)CCc2c(sc(NC(=O)Nc3ccc(Cl)cc3)c2C(N)=O)C1` (centres unmarked) [Example 153, 3-Carbamoyl-2-[3-(4-chlorophenyl)ureido]-6-(cyclopentylmethyl)-6-methyl-4,5,6,7-tetrahydrothieno[2,3-c]pyridin-6-ium iodide], the EC50 was below 1000 nM. Further, the Emax at 8.3 µM under setting [1] came to 98%.
For the compound `CC(C)(C)OC(=O)CCC[N+]1(C)CCc2c(sc(NC(=O)Nc3ccc(Cl)cc3)c2C(N)=O)C1` (centres unmarked) [Example 154, 6-(4-tert-Butoxy-4-oxobutyl)-3-carbamoyl-2-[3-(4-chlorophenyl)ureido]-6-methyl-4,5,6,7-tetrahydrothieno[2,3-c]pyridin-6-ium trifluoroacetate], the EC50 is below 1000 nM. Also, the Emax at 2.8 µM under setting [1] is 96%.
For `CC(C)(C)OC(=O)CCCC[N+]1(C)CCc2c(sc(NC(=O)Nc3ccc(Cl)cc3)c2C(N)=O)C1` (centres unmarked) [Example 155, 6-(5-tert-Butoxy-5-oxopentyl)-3-carbamoyl-2-[3-(4-chlorophenyl)ureido]-6-methyl-4,5,6,7-tetrahydrothieno[2,3-c]pyridin-6-ium iodide], in that order: below 1000 nM and 75%.
In the case of `CC(C)(C)OC(=O)CCCCC[N+]1(C)CCc2c(sc(NC(=O)Nc3ccc(Cl)cc3)c2C(N)=O)C1` (centres unmarked) [Example 156, 6-(6-tert-Butoxy-6-oxohexyl)-3-carbamoyl-2-[3-(4-chlorophenyl)ureido]-6-methyl-4,5,6,7-tetrahydrothieno[2,3-c]pyridin-6-ium iodide], the EC50 was below 1000 nM. Besides, under setting [1], the Emax at 2.8 µM was 96%.
